Literature values in PubChem BioAssay AID1259409 (Chemical Carcinogenesis Research Information System (CCRIS), 2018).

System: rodent chemically induced tumor inhibition, incidence and multiplicity
Assay: CCRIS tumor inhibitor studies
Settings: Route [Inhibitor]: ORAL

Cc1c(C)c2c(c(C)c1O)CC[C@@](C)(CCC[C@H](C)CCC[C@H](C)CCCC(C)C)O2
tumour outcome (control, treated, inhibition, significance) (Carcinogen: 1,2-DIMETHYLHYDRAZINE, 540-73-8, Dose [Inhibitor]: 600 MG/KG OF DIET DAILY STARTING AT AGE 10 WK AND CONTINUING FOR DURATION OF STUDY (STUDY DURATION: 28 WK), Species: MOUSE, Strain/Sex: LACA/MALE, Target Tissue: Type of Lesion: COLON: ADENOMA, CARCINOMA, Dose [Carcinogen]: 10 MG/KG BW 1/WK FOR 28 WK, Promoter: NONE USED): 34/42 (81%), 31/51 (61%), 25%, p<0.25 | tumour outcome (control, treated, inhibition, significance) (Carcinogen: 2-AMINO-1-METHYL-6-PHENYL-1H-IMIDAZO[4,5-B]PYRID INE, 105650-23-5, Dose [Inhibitor]: 0, 1% IN THE DIET FOR 52 WK (STUDY DURATION: 52 WK), Species: RAT, Strain/Sex: F344/FEMALE, Target Tissue: Type of Lesion: MAMMARY GLAND: ADENOCARCINOMA FIBROADENOMA, Dose [Carcinogen]: 0.02% IN THE DIET FOR 52 WK, Promoter: NONE USED): 2/20 (10%), 1/20 (5%), 50%, not significant | tumour outcome (control, treated, inhibition, significance) (Carcinogen: 2-AMINO-1-METHYL-6-PHENYL-1H-IMIDAZO[4,5-B]PYRID INE, 105650-23-5, Dose [Inhibitor]: 0, 1% IN THE DIET FOR 52 WK (STUDY DURATION: 52 WK), Species: RAT, Strain/Sex: F344/FEMALE, Target Tissue: Type of Lesion: MAMMARY GLAND: ADENOCARCINOMA, Dose [Carcinogen]: 0.02% IN THE DIET FOR 52 WK, Promoter: NONE USED): 8/20 (40%), 4/20 (20%), 50%, not significant | tumour outcome (control, treated, inhibition, significance) (Carcinogen: 2-AMINO-1-METHYL-6-PHENYLIMIDAZO[4,5-B]PYRIDINE [105650-23-5], Dose [Inhibitor]: 0.5% IN DIET FOR 54 WK (STUDY DURATION: 54 WK), Species: RAT, Strain/Sex: F344/DUCRJ/FEMALE, Target Tissue: Type of Lesion: COLON: ADENOMA OR ADENOCARCINOMA, Dose [Carcinogen]: 0.02% IN DIET FOR 54 WK (STUDY DURATION: 54 WK), Promoter: NONE): 3/20 (15%), 1/20 (5%), 67%, not significant | tumour outcome (control, treated, inhibition, significance) (Carcinogen: 2-AMINO-1-METHYL-6-PHENYLIMIDAZO[4,5-B]PYRIDINE [105650-23-5], Dose [Inhibitor]: 0.5% IN DIET FOR 54 WK (STUDY DURATION: 54 WK), Species: RAT, Strain/Sex: F344/DUCRJ/FEMALE, Target Tissue: Type of Lesion: MAMMARY GLAND: ADENOMA OR ADENOCARCINOMA, Dose [Carcinogen]: 0.02% IN DIET FOR 54 WK (STUDY DURATION: 54 WK), Promoter: NONE): 8/20 (40%), 4/20 (20%), 50%, not significant | tumour outcome (control, treated, inhibition, significance) (Carcinogen: 3,2'-DIMETHYL-4-AMINOBIPHENYL, 13394-86-0, Dose [Inhibitor]: 0, 1% IN BASAL DIET BEGINNING POST CARCINOGEN TREATMENT AND CONTINUING FOR 40 WK (STUDY DURATION: 60 WK), Species: RAT, Strain/Sex: F344/MALE, Target Tissue: Type of Lesion: LARGE INTESTINE: ADENOMA AND ADENOCARCINOMA, Dose [Carcinogen]: 50 MG/KG 1/2 WK FOR 20 WK TO RATS MAINTAINED ON ETHINYL ESTRADIOL CONTAINING DIET (0.75 PPM) FOR 1 WK CYCLED WITH ETHINY, Promoter: ETHINYL ESTRADIOL, 57-63-6): 3/10 (30%), 4/12 (33%), -10%, not significant | tumour outcome (control, treated, inhibition, significance) (Carcinogen: 3,2'-DIMETHYL-4-AMINOBIPHENYL, 13394-86-0, Dose [Inhibitor]: 0, 1% IN BASAL DIET BEGINNING POST CARCINOGEN TREATMENT AND CONTINUING FOR 40 WK (STUDY DURATION: 60 WK), Species: RAT, Strain/Sex: F344/MALE, Target Tissue: Type of Lesion: PREPUTIAL GLAND: ADENOMA AND CARCINOMA, Dose [Carcinogen]: 50 MG/KG 1/2 WK FOR 20 WK TO RATS MAINTAINED ON ETHINYL ESTRADIOL CONTAINING DIET (0.75 PPM) FOR 1 WK CYCLED WITH ETHINY, Promoter: ETHINYL ESTRADIOL, 57-63-6): 5/10 (50%), 6/12 (50%), 0%, not significant | tumour outcome (control, treated, inhibition, significance) (Carcinogen: 3,2'-DIMETHYL-4-AMINOBIPHENYL, 13394-86-0, Dose [Inhibitor]: 0, 1% IN BASAL DIET BEGINNING POST CARCINOGEN TREATMENT AND CONTINUING FOR 40 WK (STUDY DURATION: 60 WK), Species: RAT, Strain/Sex: F344/MALE, Target Tissue: Type of Lesion: SMALL INTESTINE: ADENOMA AND ADENOCARCINOMA, Dose [Carcinogen]: 50 MG/KG 1/2 WK FOR 20 WK TO RATS MAINTAINED ON ETHINYL ESTRADIOL CONTAINING DIET (0.75 PPM) FOR 1 WK CYCLED WITH ETHINY, Promoter: ETHINYL ESTRADIOL, 57-63-6): 2/10 (20%), 1/12 (8%), 60%, not significant | tumour outcome (control, treated, inhibition, significance) (Carcinogen: 3,2'-DIMETHYL-4-AMINOBIPHENYL, 13394-86-0, Dose [Inhibitor]: 0, 1% IN BASAL DIET BEGINNING POST CARCINOGEN TREATMENT AND CONTINUING FOR 40 WK (STUDY DURATION: 60 WK), Species: RAT, Strain/Sex: F344/MALE, Target Tissue: Type of Lesion: SUBCUTIS: TUMOR, Dose [Carcinogen]: 50 MG/KG 1/2 WK FOR 20 WK TO RATS MAINTAINED ON ETHINYL ESTRADIOL CONTAINING DIET (0.75 PPM) FOR 1 WK CYCLED WITH ETHINY, Promoter: ETHINYL ESTRADIOL, 57-63-6): 1/10 (10%), 0/12 (0%), 100%, not significant | tumour outcome (control, treated, inhibition, significance) (Carcinogen: 3,2'-DIMETHYL-4-AMINOBIPHENYL, 13394-86-0, Dose [Inhibitor]: 0, 1% IN BASAL DIET BEGINNING POST CARCINOGEN TREATMENT AND CONTINUING FOR 40 WK (STUDY DURATION: 60 WK), Species: RAT, Strain/Sex: F344/MALE, Target Tissue: Type of Lesion: ZYMBAL GLAND: ADENOMA AND CARCINOMA, Dose [Carcinogen]: 50 MG/KG 1/2 WK FOR 20 WK TO RATS MAINTAINED ON ETHINYL ESTRADIOL CONTAINING DIET (0.75 PPM) FOR 1 WK CYCLED WITH ETHINY, Promoter: ETHINYL ESTRADIOL, 57-63-6): 2/10 (20%), 1/12 (8%), 60%, not significant
